# From publication PMC3003779 (Chemistry & biology, 2010)
# Like-named read-outs stand apart in the source and are kept apart here.
# Tests used:
# other serine hydrolases = test: competitive activity-based protein profiling, ex vivo after i.p. dosing; format: in vivo, mouse; conditions: 1 h
# FAAH = target: T1, FAAH (Rattus norvegicus, UniProt P97612); format: in vivo; conditions: for ID50, inhibition of brain FAAH activity: i.p., 1 h; for reduction of hepatic FAAH activity: 1 mg/kg i.p.
# T1 sequence (P97612 1-579): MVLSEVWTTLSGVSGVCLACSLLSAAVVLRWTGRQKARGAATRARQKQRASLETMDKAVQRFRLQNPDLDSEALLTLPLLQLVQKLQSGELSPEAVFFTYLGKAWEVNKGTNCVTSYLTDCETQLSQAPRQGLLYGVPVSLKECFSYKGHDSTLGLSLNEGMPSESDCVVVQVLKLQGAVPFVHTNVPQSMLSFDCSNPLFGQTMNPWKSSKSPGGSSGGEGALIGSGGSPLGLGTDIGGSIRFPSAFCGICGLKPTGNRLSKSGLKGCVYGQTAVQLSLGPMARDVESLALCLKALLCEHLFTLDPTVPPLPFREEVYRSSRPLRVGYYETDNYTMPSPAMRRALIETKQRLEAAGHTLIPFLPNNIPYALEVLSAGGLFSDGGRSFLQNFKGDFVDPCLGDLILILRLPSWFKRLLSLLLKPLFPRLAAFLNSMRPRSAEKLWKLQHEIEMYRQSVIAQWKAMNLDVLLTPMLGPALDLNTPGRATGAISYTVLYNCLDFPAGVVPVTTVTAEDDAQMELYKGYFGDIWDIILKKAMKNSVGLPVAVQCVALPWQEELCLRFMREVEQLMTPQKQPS
# CB1 receptor = CB1 receptor (Rattus norvegicus, UniProt P20272); test: radioligand displacement, [3H]CP,55940, rat forebrain membranes
# CB1 receptor, sequence (P20272 whole entry): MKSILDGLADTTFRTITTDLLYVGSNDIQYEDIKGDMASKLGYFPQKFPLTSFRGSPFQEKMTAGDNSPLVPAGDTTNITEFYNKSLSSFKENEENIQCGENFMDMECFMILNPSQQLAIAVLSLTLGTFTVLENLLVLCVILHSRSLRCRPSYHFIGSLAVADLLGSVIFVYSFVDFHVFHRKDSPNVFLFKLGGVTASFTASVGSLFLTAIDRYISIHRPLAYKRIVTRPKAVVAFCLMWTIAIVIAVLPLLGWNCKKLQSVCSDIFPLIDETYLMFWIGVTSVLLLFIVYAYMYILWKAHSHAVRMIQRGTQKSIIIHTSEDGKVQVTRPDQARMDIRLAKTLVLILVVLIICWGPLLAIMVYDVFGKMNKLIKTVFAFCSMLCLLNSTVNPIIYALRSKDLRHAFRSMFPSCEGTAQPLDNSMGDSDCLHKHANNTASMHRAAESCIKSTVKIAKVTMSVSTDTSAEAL
structure (smiles),measurement,setting,value
"O=S(=O)(F)CCCCCc1ccc(O)cc1 [AM3506, 5-(4-hydroxyphenyl)pentanesulfonyl fluoride]",activity of other serine hydrolases in brain (ABPP),"other serine hydrolases; mouse brain, 0.1 mg/kg i.p.",no change
same,liver unidentified ~58kD protein activity (ABPP),"other serine hydrolases; mouse liver, 1 mg/kg i.p.",partial inhibition
same,"ID50, inhibition of brain FAAH activity",FAAH; SHR brain,~0.1 mg/kg
same,reduction of hepatic FAAH activity,FAAH; SHR liver,11.1±0.4%
same,"ID50, inhibition of brain FAAH activity",FAAH; WKY brain,~0.1 mg/kg
same,reduction of hepatic FAAH activity,FAAH; WKY liver,6.7±0.2%
same,Ki,CB1 receptor,5.77 µM
